Measurements from patent publication US10189841B2, “Purinones as ubiquitin-specific protease 1 inhibitors” (Forma Therapeutics, Inc., priority 2015, dated 2019).

Biological target: USP1 (construct USP1 (I-785, GG670, 671AA)/UAF1 (I-677)-Flag) (Homo sapiens (Human), UniProt O94782, G670A/G671A)
Assay: Ubiquitin-Rhodamine 110 assay for USP1 activity
Assay type: biochemical
Details: USP1/UAF1 25 pM, Ub-Rh110 25 nM, 30 min preincubation
Procedure, shortened: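 Two formats with the USP1/UAF1 complex and 25 nM ubiquitin-rhodamine 110 in pH 8.0 Tris buffer with calcium, glutathione and detergent. Single-point screening used 10 µM, 100 pM enzyme and 45 min. Inhibition was set against no-enzyme and DMSO wells.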

Chain of USP1 (construct USP1 (I-785, GG670, 671AA)/UAF1 (I-677)-Flag) (O94782 whole entry G670A/G671A): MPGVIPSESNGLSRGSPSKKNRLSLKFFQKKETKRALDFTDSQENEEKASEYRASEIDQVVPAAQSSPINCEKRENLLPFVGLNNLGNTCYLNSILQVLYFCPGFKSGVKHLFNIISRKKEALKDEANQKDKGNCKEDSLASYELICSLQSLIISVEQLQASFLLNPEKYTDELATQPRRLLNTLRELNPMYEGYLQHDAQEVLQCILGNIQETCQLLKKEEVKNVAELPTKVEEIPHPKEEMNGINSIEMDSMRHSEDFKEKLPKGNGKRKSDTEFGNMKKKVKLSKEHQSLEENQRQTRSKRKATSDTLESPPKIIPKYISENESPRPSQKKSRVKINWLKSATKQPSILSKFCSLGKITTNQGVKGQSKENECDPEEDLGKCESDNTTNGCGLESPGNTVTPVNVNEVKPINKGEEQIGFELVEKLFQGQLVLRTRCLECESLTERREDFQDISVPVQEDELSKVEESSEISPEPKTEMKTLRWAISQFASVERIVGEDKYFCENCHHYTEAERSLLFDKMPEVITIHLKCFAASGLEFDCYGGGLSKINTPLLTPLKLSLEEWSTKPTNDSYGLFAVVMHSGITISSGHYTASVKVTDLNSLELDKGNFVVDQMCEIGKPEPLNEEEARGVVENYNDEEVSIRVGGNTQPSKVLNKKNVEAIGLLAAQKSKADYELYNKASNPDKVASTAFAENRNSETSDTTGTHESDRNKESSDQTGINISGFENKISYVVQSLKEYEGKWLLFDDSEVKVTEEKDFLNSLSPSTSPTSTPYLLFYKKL
Chain of USP1 (construct USP1 (I-785, GG670, 671AA)/UAF1 (I-677)-Flag) (Q8TAF3 whole entry partner): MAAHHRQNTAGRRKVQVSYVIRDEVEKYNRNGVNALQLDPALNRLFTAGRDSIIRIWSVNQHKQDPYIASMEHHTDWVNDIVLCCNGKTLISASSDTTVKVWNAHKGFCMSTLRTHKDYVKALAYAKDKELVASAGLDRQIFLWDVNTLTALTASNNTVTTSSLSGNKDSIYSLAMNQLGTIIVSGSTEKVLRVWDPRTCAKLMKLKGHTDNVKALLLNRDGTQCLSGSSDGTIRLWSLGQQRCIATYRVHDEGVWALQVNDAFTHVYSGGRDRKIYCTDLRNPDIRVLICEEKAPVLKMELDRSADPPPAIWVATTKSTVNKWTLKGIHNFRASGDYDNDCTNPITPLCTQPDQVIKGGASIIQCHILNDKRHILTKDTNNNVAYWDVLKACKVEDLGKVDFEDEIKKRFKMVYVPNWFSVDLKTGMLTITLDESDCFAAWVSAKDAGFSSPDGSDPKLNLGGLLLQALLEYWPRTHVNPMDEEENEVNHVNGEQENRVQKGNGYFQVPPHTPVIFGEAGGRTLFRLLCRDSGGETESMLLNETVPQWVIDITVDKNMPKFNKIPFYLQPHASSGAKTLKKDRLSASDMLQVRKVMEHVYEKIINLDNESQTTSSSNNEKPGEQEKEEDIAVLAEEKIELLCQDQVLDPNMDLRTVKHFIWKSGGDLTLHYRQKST

SMILES | IC50 [nM]
CC(C)c1ccccc1-c1ncc2c(n1)n(Cc1ccc(-c3cnnn3C)cc1)c(=O)n2C [Compound I-285, 2-(2-isopropylphenyl)-7-methyl-9-(4-(1-methyl-1H-1,2,3-triazol-5-yl)benzyl)-7,9-dihydro-8H-purin-8-one] | 200 to 2000
CC(C)c1ccccc1-c1ncc2c(n1)n(Cc1ccc(-c3nnc4ccccn34)cc1)c(=O)n2C [Compound I-286, 9-(4-([1,2,4]triazolo[4,3-a]pyridin-3-yl)benzyl)-2-(2-isopropylphenyl)-7-methyl-7,9-dihydro-8H-purin-8-one] | < 50
CC(C)c1ccccc1-c1ncc2c(n1)n(Cc1ccc(-c3cn(C)nn3)cc1)c(=O)n2C [Compound I-287, 2-(2-isopropylphenyl)-7-methyl-9-(4-(1-methyl-1H-1,2,3-triazol-4-yl)benzyl)-7,9-dihydro-8H-purin-8-one] | < 50
CC(C)c1ccccc1-c1ncc2c(n1)n(Cc1ccc(-c3ncn(C)c3CO)cc1)c(=O)n2C [Compound I-288, 9-(4-(5-(hydroxymethyl)-1-methyl-1H-imidazol-4-yl)benzyl)-2-(2-isopropylphenyl)-7-methyl-7,9-dihydro-8H-purin-8-one] | 200 to 2000
CC(C)c1ccccc1-c1ncc2c(n1)n(Cc1ccc(-c3nccn4ccnc34)cc1)c(=O)n2C [Compound I-289, 9-(4-(imidazo[1,2-a]pyrazin-8-yl)benzyl)-2-(2-isopropylphenyl)-7-methyl-7,9-dihydro-8H-purin-8-one] | < 50
Cc1coc(-c2ccc(Cn3c(=O)n(C)c4cnc(-c5ccccc5C(C)C)nc43)cc2)n1 [Compound I-290, 2-(2-isopropylphenyl)-7-methyl-9-(4-(4-methyloxazol-2-yl)benzyl)-7,9-dihydro-8H-purin-8-one] | < 50
CC(C)c1ccccc1-c1ncc2[nH]c(=O)n(Cc3ccc(-c4nccn5ccnc45)cc3)c2n1 [Compound I-291, 9-(4-(imidazo[1,2-a]pyrazin-8-yl)benzyl)-2-(2-isopropylphenyl)-7,9-dihydro-8H-purin-8-one] | < 50
CC(C)c1ccccc1-c1ncc2[nH]c(=O)n(Cc3ccc(-c4nc(N5CCOCC5)n(C)n4)cc3)c2n1 [Compound I-292, 2-(2-isopropylphenyl)-9-(4-(1-methyl-5-morpholino-1H-1,2,4-triazol-3-yl)benzyl)-7,9-dihydro-8H-purin-8-one] | 50 to 200
CC(C)c1ccccc1-c1ncc2[nH]c(=O)n(Cc3ccc(-c4nc(C(F)(F)F)n(C)n4)cc3)c2n1 [Compound I-293, 2-(2-isopropylphenyl)-9-(4-(1-methyl-5-(trifluoromethyl)-1H-1,2,4-triazol-3-yl)benzyl)-7,9-dihydro-8H-purin-8-one] | < 50
Cc1nc(-c2ccc(Cn3c(=O)[nH]c4cnc(-c5ccccc5C(C)C)nc43)cc2)nn1C [Compound I-294, 9-(4-(1,5-dimethyl-1H-1,2,4-triazol-3-yl)benzyl)-2-(2-isopropylphenyl)-7,9-dihydro-8H-purin-8-one] | < 50
COc1nc(-c2ccc(Cn3c(=O)[nH]c4cnc(-c5ccccc5C(C)C)nc43)cc2)nn1C [Compound I-295, 2-(2-isopropylphenyl)-9-(4-(5-methoxy-1-methyl-1H-1,2,4-triazol-3-yl)benzyl)-7,9-dihydro-8H-purin-8-one] | < 50
Cc1nc(-c2ccc(Cn3c(=O)[nH]c4cnc(-c5ccccc5C(C)C)nc43)cc2)n(C)n1 [Compound I-296, 9-(4-(1,3-dimethyl-1H-1,2,4-triazol-5-yl)benzyl)-2-(2-isopropylphenyl)-7,9-dihydro-8H-purin-8-one] | < 50
CC(C)c1ccccc1-c1ncc2[nH]c(=O)n(Cc3ccc(-c4ncn(C)c4CO)cc3)c2n1 [Compound I-297, 9-(4-(5-(hydroxymethyl)-1-methyl-1H-imidazol-4-yl)benzyl)-2-(2-isopropylphenyl)-7,9-dihydro-8H-purin-8-one] | 200 to 2000
CC(C)c1ccccc1-c1ncc2[nH]c(=O)n(Cc3ccc(-c4cnnn4C)cc3)c2n1 [Compound I-298, 2-(2-isopropylphenyl)-9-(4-(1-methyl-1H-1,2,3-triazol-5-yl)benzyl)-7,9-dihydro-8H-purin-8-one] | > 2000
CC(C)c1ccccc1-c1ncc2[nH]c(=O)n(Cc3ccc(-c4ccnn4C(C)C)cc3)c2n1 [Compound I-299, 9-(4-(1-isopropyl-1H-pyrazol-5-yl)benzyl)-2-(2-isopropylphenyl)-7,9-dihydro-8H-purin-8-one] | 50 to 200
Cc1scnc1-c1ccc(Cn2c(=O)[nH]c3cnc(-c4ccccc4C(C)C)nc32)cc1 [Compound I-300, 2-(2-isopropylphenyl)-9-(4-(5-methylthiazol-4-yl)benzyl)-7,9-dihydro-8H-purin-8-one] | < 50
Cc1nc(-c2ccc(Cn3c(=O)[nH]c4cnc(-c5ccccc5C(C)C)nc43)cc2)c(C)s1 [Compound I-301, 9-(4-(2,5-dimethylthiazol-4-yl)benzyl)-2-(2-isopropylphenyl)-7,9-dihydro-8H-purin-8-one] | < 50
CC(C)c1ccccc1-c1ncc2[nH]c(=O)n(Cc3ccc(-c4ncsc4CO)cc3)c2n1 [Compound I-302, 9-(4-(5-(hydroxymethyl)thiazol-4-yl)benzyl)-2-(2-isopropylphenyl)-7,9-dihydro-8H-purin-8-one] | < 50
Cc1scnc1-c1ccc(Cn2c(=O)n(C)c3cnc(-c4ccccc4C(C)C)nc32)cc1 [Compound I-303, 2-(2-isopropylphenyl)-7-methyl-9-(4-(5-methylthiazol-4-yl)benzyl)-7,9-dihydro-8H-purin-8-one] | < 50
Cc1nc(-c2ccc(Cn3c(=O)n(C)c4cnc(-c5ccccc5C(C)C)nc43)cc2)c(C)s1 [Compound I-304, 9-(4-(2,5-dimethylthiazol-4-yl)benzyl)-2-(2-isopropylphenyl)-7-methyl-7,9-dihydro-8H-purin-8-one] | < 50
CC(C)c1ccccc1-c1ncc2c(n1)n(Cc1ccc(-c3ncsc3CO)cc1)c(=O)n2C [Compound I-305, 9-(4-(5-(hydroxymethyl)thiazol-4-yl)benzyl)-2-(2-isopropylphenyl)-7-methyl-7,9-dihydro-8H-purin-8-one] | < 50
Cc1cn2ccnc2c(-c2ccc(Cn3c(=O)[nH]c4cnc(-c5ccccc5C(C)C)nc43)cc2)n1 [Compound I-306, 2-(2-isopropylphenyl)-9-(4-(6-methylimidazo[1,2-a]pyrazin-8-yl)benzyl)-7,9-dihydro-8H-purin-8-one] | < 50
Cc1cn(C)c(-c2ccc(Cn3c(=O)[nH]c4cnc(-c5cccc(F)c5C(C)C)nc43)cc2)n1 [Compound I-307, 9-(4-(1,4-dimethyl-1H-imidazol-2-yl)benzyl)-2-(3-fluoro-2-isopropylphenyl)-7,9-dihydro-8H-purin-8-one] | < 50
CC(C)c1c(F)cccc1-c1ncc2[nH]c(=O)n(Cc3ccc(-c4cn(C)cn4)cc3)c2n1 [Compound I-308, 2-(3-fluoro-2-isopropylphenyl)-9-(4-(1-methyl-1H-imidazol-4-yl)benzyl)-7,9-dihydro-8H-purin-8-one] | < 50
CC(C)c1ccccc1-c1ncc2[nH]c(=O)n([C@H](C)c3ccc(-c4nccn4C)cc3)c2n1 [Compound I-309, (R)-2-(2-isopropylphenyl)-9-(1-(4-(1-methyl-1H-imidazol-2-yl)phenyl)ethyl)-7,9-dihydro-8H-purin-8-one] | < 50
